pIC50: −log10 of the molar value. Converted amounts (≈) assume the structure as drawn. Like-named read-outs stand apart in the source and are kept apart here.
What was measured:
[1] = test system: antimicrobial activity (microbes not named); set-up: method as in PMID 36982955; conditions: cited from earlier work
P. aeruginosa = test system: P. aeruginosa; set-up: method as in PMID 36982955; conditions: cited from earlier work
MRSA ATCC 43300 = assay: Antimicrobial MIC, MRSA (CO-ADD); type: cell-based, methicillin-resistant S. aureus; conditions: Staphylococcus aureus, read-out: MIC MRSA
Description: (§1) The susceptibility of bacterial strains S. aureus (ATCC 25923), E. coli (ATCC 25922) and P. aeruginosa (ATCC 27853) to antibiotics and compounds was determined using protocols reported previously. Additional antimicrobial evaluation against MRSA (ATCC 43300), Klebsiella pneumoniae (ATCC 700603), Acinetobacter baumannii (ATCC 19606), Candida albicans (ATCC 90028) and Cryptococcus neoformans (ATCC 208821) was undertaken at the Community for Open Antimicrobial Drug Discovery at The University of Queensland (Australia) according to their standard protocols reported previously.

P. aeruginosa PAO1 = assay: Intrinsic MIC, P. aeruginosa PAO1; type: cell-based; conditions: Pseudomonas aeruginosa
Description: (§2) Antibiotic enhancer concentrations were determined using previously reported protocols.

K. pneumoniae ATCC 13883 = assay: Intrinsic MIC, K. pneumoniae ATCC 13883; type: cell-based; conditions: Klebsiella pneumoniae
Description: as §2

A. baumannii AYE = assay: Intrinsic MIC, A. baumannii AYE; type: cell-based; conditions: Acinetobacter baumannii, read-out: MIC alone, A. b
Description: as §2

S. aureus ATCC 25923 = assay: Antimicrobial MIC, S. aureus; type: cell-based; conditions: Staphylococcus aureus, ATCC25923, mean (n = 3)
Description: as §1

P. aeruginosa ATCC 27853 [2] = assay: Antimicrobial MIC, P. aeruginosa; type: cell-based; conditions: Pseudomonas aeruginosa, ATCC27853, mean (n = 3)
Description: as §1

E. coli ATCC 25922 [3] = assay: Antimicrobial MIC, E. coli; type: cell-based, Escherichia coli; conditions: Escherichia coli, ATCC25922, E. coli ATCC 25922; mean (n = 3)
Description: as §1

C. albicans ATCC 90028 = assay: Antifungal MIC, C. albicans (CO-ADD); type: cell-based; conditions: Candida albicans, ATCC90028, mean (n = 2)
Description: as §1

[4] = test system: C. neoformans ATCC 208821; assay: Antifungal MIC, C. neoformans (CO-ADD); type: cell-based; conditions: Cryptococcus neoformans, ATCC208821, mean (n = 2)
Description: as §1

Cytotoxicity assay = type: cell-based, human; conditions: human, HEK293 human embryonic kidney cells, mean (n = 2), read-out: Cytotoxicity (IC50), concentration of compound at 50% cytotoxicity
Description: (§3) Cytotoxicity assays were conducted using the protocols previously reported.

[5] = test system: HEK293 human embryonic kidney cells; assay: Cytotoxicity assay; type: cell-based; conditions: mean (n = 2)
Description: as §3

human red blood cells = assay: Hemolytic assay; type: cell-based; conditions: mean (n = 2)
Description: Hemolysis assays were conducted using the protocols previously reported.

P. aeruginosa ATCC 27853 [6] = assay: Doxycycline enhancement against P. aeruginosa; type: cell-based, Pseudomonas aeruginosa; conditions: doxycycline fixed at 4.5 µM
Description: as §2
We then evaluated the set of analogues for the ability to enhance the antibiotic activity of doxycycline against P. aeruginosa ATCC 27853 and of erythromycin against E. coli ATCC 25922 (Table 2). In the case of doxycycline, a fixed concentration of the antibiotic of 4.5 μM, which is twenty-fold lower than the intrinsic MIC 90 μM against this organism, was used. Each of the test compounds was then evaluated at a range of concentrations varying from 3.125 to 50–100 μM, with the upper concentration dependent upon the compounds intrinsic MIC towards P. aeruginosa (Table 1). […] While the observation of cytotoxicity/hemolytic properties of 16a–c, 14f and 13f reduces our interest in these analogues, analogues 13b and 13d were identified as non-toxic and strong enhancers of the action of doxycycline towards P. aeruginosa.

E. coli ATCC 25922 [7] = assay: Erythromycin enhancement against E. coli; type: cell-based, Escherichia coli; conditions: erythromycin fixed at 10.9 µM (8 µg/mL)
Description: as §2

[8] = P. aeruginosa PAO1, substance alone (no antibiotic / no enhancer), read-out: MIC alone, P. a
[9] = ATCC13883, K. pneumoniae ATCC 13883, substance alone, read-out: MIC alone, K. p
[10] = A. baumannii AYE, substance alone

For O=C(CCc1ccccc1)NCCCNCCCCCCCCNCCCNC(=O)CCc1ccccc1 [Compound 18], the Antimicrobial activity [1] is listed as “devoid of antimicrobial activity” and the “Ability to enhance the action of doxycycline towards P. aeruginosa” value (P. aeruginosa) is listed as “devoid”.

CN[C@H](CC(C)C)C(=O)N[C@H]1C(=O)N[C@@H](CC(N)=O)C(=O)N[C@H]2C(=O)N[C@H]3C(=O)N[C@H](C(=O)N[C@H](C(=O)O)c4cc(O)cc(O)c4-c4cc3ccc4O)[C@H](O)c3ccc(c(Cl)c3)Oc3cc2cc(c3O[C@@H]2O[C@H](CO)[C@@H](O)[C@H](O)[C@H]2O[C@H]2C[C@](C)(N)[C@H](O)[C@H](C)O2)Oc2ccc(cc2Cl)[C@H]1O [vancomycin] showed an MIC (MRSA ATCC 43300) of 0.7 µM (≈ 1.01 µg/mL), an MIC (P. aeruginosa PAO1; PAO1, read-out: MIC alone, P. a) of 138 µM (≈ 200 µg/mL) and an MIC (K. pneumoniae ATCC 13883; ATCC13883, read-out: MIC alone, K. p) of 138 µM (≈ 200 µg/mL). It also gave an MIC (A. baumannii AYE) of 138 µM (≈ 200 µg/mL).

With O=C(N[C@H](CO)[C@H](O)c1ccc([N+](=O)[O-])cc1)C(Cl)Cl [chloramphenicol] the MIC (S. aureus ATCC 25923) was 1.5 to 3 µM (≈ 0.485 to 0.969 µg/mL), the MIC (P. aeruginosa PAO1; [8]) was > 200 µM and the MIC (K. pneumoniae ATCC 13883; [9]) was > 200 µM. The MIC (A. baumannii AYE; [10]) was > 200 µM.

Work on C[C@H]1c2cccc(O)c2C(=O)C2=C(O)[C@]3(O)C(=O)C(C(N)=O)=C(O)[C@@H](N(C)C)[C@@H]3[C@@H](O)[C@@H]21 [doxycycline, reference compound] yielded an MIC (P. aeruginosa ATCC 27853 [2]) of 90 µM (≈ 40 µg/mL) and an MIC (P. aeruginosa PAO1; [8]) of 144 µM.

With O=C(C=Cc1ccccc1)NCCCNCCCCCCCCNCCCNC(=O)C=Cc1ccccc1.O=C(O)C(F)(F)F.O=C(O)C(F)(F)F [Compound 13d, N^1,N^8-Bis(3-cinnamamidopropyl)octane-1,8-diaminium 2,2,2-trifluoroacetate] the MIC (S. aureus ATCC 25923) was 100 µM, the MIC (MRSA ATCC 43300; MRSA ATCC 43300, mean (n = 2)) was 42.8 µM and the MIC (P. aeruginosa ATCC 27853 [2]) was > 200 µM. The MIC (E. coli ATCC 25922 [3]) was 100 µM, the MIC (C. albicans ATCC 90028) was > 42.8 µM and the MIC [4] was 42.8 µM. The pIC50 (Cytotoxicity assay) was < 4.37, the “Cytotoxicity (IC50), concentration of compound at 50% cytotoxicity” value [5] was “non-toxic” and the “Hemolysis (HC10), concentration of compound at 10% hemolytic activity” value (human red blood cells) was >42.9 µM. For the same compound, the “Dox/P. a: concentration required to restore doxycycline activity” value (P. aeruginosa ATCC 27853 [6]) was 6.25 µM, the “Eryth/E. c: concentration required to restore erythromycin activity” value (E. coli ATCC 25922 [7]) was 25 µM and the “Eryth/E. c: fold change (intrinsic MIC of test compound / combination MIC)” value (E. coli ATCC 25922 [7]) was 4 fold.

For CN(C)c1ccc(O)c2c1C[C@H]1C[C@H]3[C@H](N(C)C)C(O)=C(C(N)=O)C(=O)[C@@]3(O)C(O)=C1C2=O [minocycline], the MIC (P. aeruginosa PAO1; [8]) was 70 µM, the MIC (K. pneumoniae ATCC 13883; [9]) was 27 µM (≈ 12.4 µg/mL) and the MIC (A. baumannii AYE; [10]) was 27 µM (≈ 12.4 µg/mL).

Reference: article PMC10377643, “Exploration of Bis-Cinnamido-Polyamines as Intrinsic Antimicrobial Agents and Antibiotic Enhancers” (Biomolecules, 2023)
